Experimental data from PMC3262007, “A Fluorescence-Based High-Throughput Assay for the Discovery of Exchange Protein Directly Activated by Cyclic AMP (EPAC) Antagonists” (PLoS ONE, 2012).

Experiments:
[1] = biological target: T1, type I PKA holoenzyme (Homo sapiens, UniProt P10644); test: Type I PKA holoenzyme kinase activity (counter screening assay); format: biochemical; details: 25 µM compound, 0.1 mM cAMP
T1 construct: made in house; host or cells: E. coli
Procedure: (§1) Kinase activities of the type I and II PKA holoenzymes were measured spectrophotometrically in a 96-well plate with a coupled enzyme assay as described previously. In this assay, the formation of the ADP is coupled to the oxidation of NADH by the pyruvate kinase/lactate dehydrogenase reactions so the reaction rate can be determined by following the oxidation of NADH, reflected by a decrease in absorbance at 340 nm. […] Reactions were pre-equilibrated at room temperature and initiated by adding the Kemptide substrate (final concentration 0.26 mM). PKA activities measured in the presence of 25 µM H89, a selective PKA inhibitor, were used as positive controls of PKA inhibition.

[2] = biological target: T2, type II PKA holoenzyme (Homo sapiens, UniProt P31323); test: Type II PKA holoenzyme kinase activity (counter screening assay); format: biochemical; details: 25 µM compound, 0.1 mM cAMP
T2 construct: made in house; host or cells: E. coli
Procedure: as §1

[3] = biological target: T3, EPAC2 (Mus musculus, UniProt Q9EQZ6); test: 8-NBD-cAMP competition / primary screen fluorescence assay; format: binding; details: for IC50: competition with 8-NBD-cAMP in binding to EPAC2; for dose response of EPAC2/8-NBD-cAMP fluorescence signal: dose-dependent response, Figure 2
T3 construct: when titrated with purified full-length EPAC2; made in house
T3 sequence (Q9EQZ6 1-993 isoform Q9EQZ6-3): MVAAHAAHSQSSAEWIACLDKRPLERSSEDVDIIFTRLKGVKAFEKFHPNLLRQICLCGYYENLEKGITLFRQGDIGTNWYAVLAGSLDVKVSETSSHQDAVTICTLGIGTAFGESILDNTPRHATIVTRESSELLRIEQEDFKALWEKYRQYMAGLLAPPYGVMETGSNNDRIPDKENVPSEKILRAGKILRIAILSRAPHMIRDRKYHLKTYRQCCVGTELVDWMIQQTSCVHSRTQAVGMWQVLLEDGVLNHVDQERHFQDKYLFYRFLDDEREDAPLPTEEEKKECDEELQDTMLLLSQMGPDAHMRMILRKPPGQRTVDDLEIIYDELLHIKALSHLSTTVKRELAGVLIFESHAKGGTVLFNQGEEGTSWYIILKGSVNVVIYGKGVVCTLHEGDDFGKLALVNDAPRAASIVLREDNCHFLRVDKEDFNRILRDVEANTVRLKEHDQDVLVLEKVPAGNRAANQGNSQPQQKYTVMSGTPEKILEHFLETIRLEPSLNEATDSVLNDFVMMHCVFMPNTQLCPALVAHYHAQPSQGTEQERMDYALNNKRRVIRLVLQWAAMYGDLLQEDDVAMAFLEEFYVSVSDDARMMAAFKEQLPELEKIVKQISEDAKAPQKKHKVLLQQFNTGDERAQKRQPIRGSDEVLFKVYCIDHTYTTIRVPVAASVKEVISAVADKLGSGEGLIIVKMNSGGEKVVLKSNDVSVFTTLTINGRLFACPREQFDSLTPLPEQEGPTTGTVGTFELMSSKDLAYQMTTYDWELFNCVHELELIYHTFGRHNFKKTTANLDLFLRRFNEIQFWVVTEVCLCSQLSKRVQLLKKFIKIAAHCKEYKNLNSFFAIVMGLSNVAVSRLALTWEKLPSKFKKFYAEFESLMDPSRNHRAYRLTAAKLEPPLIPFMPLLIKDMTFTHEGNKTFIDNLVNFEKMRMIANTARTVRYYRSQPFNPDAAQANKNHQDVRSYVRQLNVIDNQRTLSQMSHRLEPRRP
Procedure: Primary screen of NCI DTP (Developmental Therapeutics Program) diversity set library was performed in black 96-well microplates from Corning Costar (Cambridge, MA, USA). Briefly, 50 nM EPAC2 solution was prepared in 20 mM Tris buffer, pH 7.5, containing 150 mM NaCl, 1 mM EDTA and 1 mM […]. […] Test compounds were added from 10 mM stock solutions in DMSO. […] Fluorescence intensity signal from 8-NBD probe was recorded at room temperature before and after tested compounds were added using SpectaMaxM2 microplate reader (Molecular Devices, Silicon Valley, CA, USA) with excitation/emission wavelengths set at 470/540 nm.

[4] = biological target: T3, EPAC2; test: EPAC2 GEF activity, Rap1 nucleotide exchange (secondary confirmation assay); format: biochemical; details: 25 µM compound in the presence of 25 µM cAMP
Procedure: Measurement of in vitro guanine nucleotide exchange factor (GEF) activity of EPAC was adapted from a well known fluorescence-based assay using a fluorescent guanine nucleotide analog, and used as a functional confirmation assay for the compounds identified from primary screen. […] Exchange of Mant-GDP by GDP was measured as a decrease in fluorescence intensity over time using a FluoroMax-3 spectrofluorometer with excitation/emission wavelengths set at 366/450 nm. Typically, decay in the fluorescence intensity was recorded over a time course of 6000 s with data points taken every 60 s.

[5] = test system: EPAC; details: cited from earlier work

T1 sequence (P10644 whole entry): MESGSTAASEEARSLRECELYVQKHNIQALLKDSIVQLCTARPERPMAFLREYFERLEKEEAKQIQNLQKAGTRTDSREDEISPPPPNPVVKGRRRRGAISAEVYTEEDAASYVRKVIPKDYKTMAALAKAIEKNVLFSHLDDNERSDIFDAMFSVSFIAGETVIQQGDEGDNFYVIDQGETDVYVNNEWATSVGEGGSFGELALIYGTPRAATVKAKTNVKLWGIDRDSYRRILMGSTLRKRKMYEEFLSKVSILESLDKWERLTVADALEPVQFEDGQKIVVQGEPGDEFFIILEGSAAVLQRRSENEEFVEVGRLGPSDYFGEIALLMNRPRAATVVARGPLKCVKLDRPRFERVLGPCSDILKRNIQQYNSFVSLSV
T2 sequence (P31323 whole entry): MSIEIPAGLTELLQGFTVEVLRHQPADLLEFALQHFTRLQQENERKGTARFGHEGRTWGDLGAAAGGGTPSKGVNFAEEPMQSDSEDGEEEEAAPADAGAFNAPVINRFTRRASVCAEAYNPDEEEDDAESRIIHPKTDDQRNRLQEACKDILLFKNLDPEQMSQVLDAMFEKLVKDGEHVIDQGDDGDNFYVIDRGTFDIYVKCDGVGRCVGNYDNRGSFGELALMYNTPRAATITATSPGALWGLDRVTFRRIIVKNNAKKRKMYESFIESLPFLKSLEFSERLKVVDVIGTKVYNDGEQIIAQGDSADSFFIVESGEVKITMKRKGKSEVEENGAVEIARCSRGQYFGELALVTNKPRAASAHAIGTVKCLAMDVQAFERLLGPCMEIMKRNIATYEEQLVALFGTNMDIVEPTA

IC50 [3]	dose response of EPAC2/8-NBD-cAMP fluorescence signal [3]	SMILES	inhibition of cAMP-mediated EPAC2 GEF activity [4]	other results
3.8 µM	–	O=C1C=CC2=C(Oc3c(ccc(O)c3O)/C2=C/C=C(O)O)C1=O [NSC119911]	inhibit EPAC2 GEF activity to basal levels	type I PKA activity blocked [1]: ~50%; type II PKA activity blocked [2]: ~50%
1.7 µM	–	O=C1C=Cc2ccccc2C1=NNc1cccc2cc(S(=O)(=O)O)ccc12 [NSC45576]	inhibit EPAC2 GEF activity to basal levels	effect on cAMP-induced type I PKA holoenzyme activation [1]: did not significantly alter; effect on cAMP-induced type II PKA holoenzyme activation [2]: did not significantly alter
7.9 µM	–	N#Cc1c(NC(=O)C(F)(F)F)sc2c3c(=O)c4ccccc4c(=O)c=3oc3ccccc3c12 [NSC686365]	inhibit EPAC2 GEF activity to basal levels	effect on cAMP-induced type I PKA holoenzyme activation [1]: did not significantly alter; effect on cAMP-induced type II PKA holoenzyme activation [2]: did not significantly alter

Continued, molecule first:

SMILES	IC50 [3]	dose response of EPAC2/8-NBD-cAMP fluorescence signal [3]	inhibition of cAMP-mediated EPAC2 GEF activity [4]	other results
O=c1[nH]c(=O)c2ncn(C3OC4COP(=O)(O)OC4C3O)c2[nH]1 (stereo not shown) [cXMP, reference compound]	–	minimal effects	–	–
Nc1ncnc2c1nc(Cl)n2[C@@H]1O[C@@H]2COP(=O)(O)O[C@H]2[C@H]1O [8-Cl-cAMP, reference compound]	–	significant dose-dependent inhibitions	–	–
CO[C@@H]1[C@@H]2OP(=O)(O)OC[C@H]2O[C@H]1n1c(Sc2ccc(Cl)cc2)nc2c(N)ncnc21 [8-CPT-2′-O-Me-cAMP, 8-(4-chloro-phenylthio)-2′-O-methyladenosine-3′,5′-cyclic monophosphate]	–	–	–	selectivity towards EPAC over PKA [5]: about 100 fold
Nc1ncnc2c1ncn2C1CC2OP(=O)(O)OCC2O1 (stereo not shown) [2′-deoxy-cAMP, reference compound]	–	minimal effects	–	–
